Test [1] concerns the target COX-1 (Ovis aries, UniProt P05979). As to the kind of experiment: Cyclooxygenase COX-1 inhibition assay. Format: biochemical. The note with it: for inhibition at 62.5 µg/mL / inhibition at 125 µg/mL / inhibition at 500 µg/mL: read-out: % COX-1 inhibition; for inhibition at 1000 µg/mL: 1,000 µg/mL.
Test [2] concerns the target T1, 5-LOX (Homo sapiens, UniProt P09917).
T1 construct: purchased Sigma-Aldrich (local distributor) 437996
T1 sequence (P09917 1-674): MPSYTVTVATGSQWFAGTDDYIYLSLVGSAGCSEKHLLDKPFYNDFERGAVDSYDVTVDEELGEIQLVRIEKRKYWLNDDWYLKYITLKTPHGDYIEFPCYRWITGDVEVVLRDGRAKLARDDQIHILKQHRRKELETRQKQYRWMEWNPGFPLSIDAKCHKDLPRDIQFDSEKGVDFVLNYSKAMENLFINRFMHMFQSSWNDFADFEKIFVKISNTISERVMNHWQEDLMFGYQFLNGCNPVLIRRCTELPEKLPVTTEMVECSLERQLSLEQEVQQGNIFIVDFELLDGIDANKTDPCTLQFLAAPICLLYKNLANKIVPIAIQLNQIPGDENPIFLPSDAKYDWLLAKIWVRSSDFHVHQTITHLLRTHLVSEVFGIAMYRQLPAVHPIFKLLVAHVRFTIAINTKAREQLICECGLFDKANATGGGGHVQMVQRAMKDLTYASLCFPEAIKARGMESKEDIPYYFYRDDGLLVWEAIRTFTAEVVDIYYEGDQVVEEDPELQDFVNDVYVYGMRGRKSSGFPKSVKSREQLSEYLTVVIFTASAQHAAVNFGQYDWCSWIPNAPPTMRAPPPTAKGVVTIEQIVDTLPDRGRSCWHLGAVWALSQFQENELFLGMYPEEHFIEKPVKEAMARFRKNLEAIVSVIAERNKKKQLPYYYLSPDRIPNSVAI
The test can be described thus: 5-Lipoxygenase (5-LOX) inhibition assay. In kind it is biochemical. The note with it: for inhibition at 62.5 µg/mL: 62.50 μg/mL; for inhibition at 62.5 µg/mL / inhibition at 125 µg/mL / inhibition at 250 µg/mL / inhibition at 500 µg/mL / inhibition at 1000 µg/mL: read-out: % 5-LOX inhibitions; for inhibition at 1000 µg/mL: 1,000 µg/mL; for % 5-LOX inhibitions: 1,000 μg/mL. How it is done:
The 5-LOX inhibitory experiments on H. digitata samples were carried out as per published protocol ([Pervaiz et al., 2022]). Several concentrations of plant samples were made, with concentrations ranging from 31.25 to 1,000 μg/mL. Thereafter, 5-LOX was primed with 10,000 U/mL solutions. Linoleic acid (80 mM) was used as the substrate. Likewise, 50 mM phosphate buffer with a pH of 6.3 was primed. Plant samples of varied quantities were dissolved in 250 µL of phosphate buffer, and then, 250 µL of the lipoxygenase enzyme solution was added and incubated for 5 min at room temperature. A volume of 1,000 µL of the substrate solution with a concentration of 0.6 mM was added to the enzyme solution and shaken. The absorbance at 234 nm was observed. All of the tests were conducted three times. In this test, zileuton served as a positive control. The percentage inhibition was determined using the following equation: Percentage Inhibition=Control Abs. −Sample Abs. /Control Abs. ×100.
The IC50 values were derived by plotting the inhibitions against the concentrations of the tested sample solution.

Test [3] has as its system bradykinin-induced paw edema. As to the kind of experiment: Bradykinin-induced paw edema.
Protocol: (§1) Employing prostaglandin E2, bradykinin, leukotriene, and histamine induced paw edema assays; the potential anti-inflammatory mechanism of the isolated compound was investigated. […] Sub-planter injections of prostaglandin E2 (0.01 mg/mL) or 10 mg/mL leukotriene or bradykinin (20 mg/mL) or 0.1 mL histamine (1 mg/mL) produced paw edema after 1 h. Each mouse’s paw volume was assessed immediately before and after sub-planter injection of various irritants (inflammatory agents) at 1–5 h.
The subject of test [4] is histamine-induced paw edema. As to the kind of experiment: Histamine-induced paw edema. The note with it: 20 mg/kg, 2nd hour.
Protocol: as §1
Test [5] has as its system CAT. As to the kind of experiment: In vivo antioxidant: CAT activity. The arrangement: species or system mice. The note with it: high tested dose. How it is done:
Twenty male albino mice were distributed into four groups, each with five mice. The control group (group 1) received 0.4 mL of distilled water. The compound was given in doses of 2.5, 5, and 10 mg/kg to groups 2, 3, and 4, respectively. Throughout the trial, the mice were given a daily dose for 3 weeks and were evaluated for alterations, other symptoms of toxicity, and death on a daily basis. […]
[…] […] The reaction was started by adding 0.1 mL of fresh 30 mM H2O2, and the decomposition rate of H2O2 was measured on a spectrophotometer at 240 nm for 5 min. Catalase activity was determined using a molar extinction coefficient of 0.041 mM^−1 cm^−1.

The subject of test [6] is leukotriene-induced paw edema. As to the kind of experiment: Leukotriene-induced paw edema. As to conditions: 20 mg/kg.
Protocol: as §1
The subject of test [7] is carrageenan-induced paw edema. The test can be described thus: Carrageenan-induced paw edema. In kind it is in vivo, mice. On the procedure:
Mice of both sexes (25–30 g) were used for in vivo anti-inflammatory activity of test samples on the carrageenan-induced inflammation model ([Munir et al., 2020]). Mice were distributed into five groups, with eight animals in each group, divided at random. Group-I served as the negative control and received DMSO at a dose of 10 mL/kg body weight. Group-II served as a positive control, which received aspirin at a dose of 100 mg/kg body weight. […] Each mouse received 1 percent (w/v) saline solution (0.05 mL) of carrageenan in the sub-planter region after a 30-min interval. The paw edema volume was determined using a plethysmometer (LE 7500-plan lab S.L) at 1–5 h intervals after carrageenan was given. […] The percentages of inhibition of inflammation were calculated using the formula given below: % inhibition=EC−ET/EC×100, where “EC” is the average edema of control and “ET” is the edema of the tested group.
(In the carrageenan paw model, swelling and tenderness develop within hours.)

Test [8] concerns SOD. As to the kind of experiment: In vivo antioxidant: SOD activity in brain, heart, liver. The note with it: for SOD activity: D-galactose aging mice. The arrangement: species or system mice.

Read-outs that look alike come from different tables or passages of the source.

This note sets out measurements from article PMC10937556, “Phenolic phytochemistry, in vitro, in silico, in vivo, and mechanistic anti-inflammatory and antioxidant evaluations of Habenaria digitata” (Frontiers in Pharmacology, 2024).

The term IC50 denotes the midpoint of a concentration-inhibition curve. Low readings indicate greater potency, high ones weaker potency.

Chain of COX-1 (P05979 25-600): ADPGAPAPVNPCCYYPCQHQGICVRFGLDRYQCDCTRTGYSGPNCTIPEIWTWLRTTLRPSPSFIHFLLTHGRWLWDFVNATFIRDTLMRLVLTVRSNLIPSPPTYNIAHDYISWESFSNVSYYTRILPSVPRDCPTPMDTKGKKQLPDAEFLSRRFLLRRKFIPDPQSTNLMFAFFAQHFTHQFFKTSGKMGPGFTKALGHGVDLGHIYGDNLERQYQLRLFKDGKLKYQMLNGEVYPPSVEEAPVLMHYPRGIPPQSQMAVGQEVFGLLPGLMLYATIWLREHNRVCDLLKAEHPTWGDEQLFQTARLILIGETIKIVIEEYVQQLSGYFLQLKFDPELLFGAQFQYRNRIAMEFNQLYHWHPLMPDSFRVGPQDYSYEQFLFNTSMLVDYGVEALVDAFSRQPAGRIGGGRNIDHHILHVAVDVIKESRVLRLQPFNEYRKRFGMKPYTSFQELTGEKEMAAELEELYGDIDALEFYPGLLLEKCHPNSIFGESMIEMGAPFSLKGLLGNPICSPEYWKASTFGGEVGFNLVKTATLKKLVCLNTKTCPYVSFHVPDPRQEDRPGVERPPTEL

In the case of `Cc1ccc(C(C)C)c(O)c1` [Compound 3, 2-isopropyl-5-methylphenol], in test [1], the inhibition at 62.5 µg/mL was 41.3 ± 1.01%, the inhibition at 125 µg/mL is 46.7 ± 0.78% and the inhibition at 500 µg/mL is 57.9 ± 0.97%. Also, in test [2], half-maximal inhibition (IC50) was put at 174 µM, the inhibition at 62.5 µg/mL came out at 51.9 ± 1.16%, the inhibition at 125 µg/mL worked out at 57.34 ± 0.55% and the inhibition at 250 µg/mL came to 61.36 ± 0.49%. Further, in test [2], the inhibition at 500 µg/mL came to 67.39 ± 0.49% and the inhibition at 1000 µg/mL was 73.39 ± 0.6%.
As for `C=Cc1ccc(O)cc1OC` [Compound 4, 3-methoxy-4-vinylphenol], the inhibition at 62.5 µg/mL in test [1] (62.50 μg/mL) was found to be 33 ± 1.15%. For the same compound, the inhibition at 125 µg/mL in test [1] (125 µg/mL) is 42.7 ± 0.89%. Besides, in test [1], the inhibition at 250 µg/mL stood at 49 ± 0.58% and the inhibition at 1000 µg/mL came to 71.33 ± 0.49%. Besides, the inhibition at 500 µg/mL in test [1] (500 µg/mL) came to 63.03 ± 0.23%. In test [2], the IC50 is 182 µM, the inhibition at 62.5 µg/mL amounted to 59.8 ± 0.65%, the inhibition at 125 µg/mL worked out at 66.7 ± 0.78% and the inhibition at 250 µg/mL is 75.7 ± 0.62%. In addition, in test [2], the inhibition at 500 µg/mL is 80.76 ± 0.63% and the inhibition at 1000 µg/mL amounted to 76.7 ± 0.66%. The “% 5-LOX inhibitions” value in test [2] (listed as Comp 4) is 84.83 ± 0.62 %.
On to `Cc1cnc(O)nc1O` [Compound 1, 5-methylpyrimidine-24,4-diol], for which, in test [3] (20 mg/kg, initial hour), the “Percentage inhibition of bradykinin-induced paw edema” value is on record as 9.20 ± 1.12%. Further, the “Activity against bradykinin-induced paw edema” value in test [3] (low doses) is on record as “no activity”. Besides, the “Percentage inhibition of histamine-induced paw edema” value in test [4] is reported as 28.12 ± 0.62%. The CAT activity in test [5] (brain) stood at 97 U/mL; in test [5] (heart) it was 143.02 U/mg protein; in test [5] (liver), 139.0 U/mg protein. Moreover, the inhibition at 62.5 µg/mL in test [1] (62.50 μg/mL) came out at 45.8 ± 0.9%; in test [2] it was 65.68 ± 0.64%. Besides, the inhibition at 125 µg/mL in test [1] (125 µg/mL) turned out to be 55.4 ± 0.2%; in test [2], 71.42 ± 0.46%. Further, the inhibition at 250 µg/mL was determined as 60.6 ± 0.63% in test [1] and 76.53 ± 0.41% in test [2]. Further, the inhibition at 500 µg/mL in test [1] (500 µg/mL) amounted to 66.5 ± 0.9%; in test [2], 82.45 ± 0.55%. In addition, the inhibition at 1000 µg/mL in test [1] was 73.1 ± 1.04%; in test [2], 87.63 ± 0.64%. In addition, the “Percentage inhibition of leukotriene-induced paw edema” value is 53.00 ± 1.10% in test [6] (1 h); 59.50 ± 0.92% in test [6] (2 h); 62.0 ± 0.70% in test [6] (3 h); 54.84 ± 0.92% in test [6] (4 h); 41.43 ± 1.10% in test [6] (5 h). In addition, the “Percentage inhibition of paw edema” value amounted to 46.72 ± 2.63 ns % in test [7] (dose 5 mg/kg, 1 h); 50.46 ± 2.52 % in test [7] (dose 5 mg/kg, 2 h); 53.58 ± 1.33 % in test [7] (dose 5 mg/kg, 3 h); 52.37 ± 1.46 % in test [7] (dose 5 mg/kg, 4 h); 55.23 ± 1.61 % in test [7] (dose 5 mg/kg, 5 h); 51.37 ± 2.23 % in test [7] (dose 10 mg/kg, 1 h). Also, the “Percentage inhibition of paw edema” value in test [7] (dose 10 mg/kg, 2 h) is 53.56 ± 3.57 %; in test [7] (dose 10 mg/kg, 3 h), 56.56 ± 1.57 %; in test [7] (dose 10 mg/kg, 4 h) it was 55.76 ± 2.62 %; in test [7] (dose 10 mg/kg, 5 h), 61.68 ± 2.77 %; in test [7] (dose 20 mg/kg, 1 h), 54.27 ± 3.06 %; in test [7] (dose 20 mg/kg, 2 h) it was 56.38 ± 1.67 %. Besides, the “Percentage inhibition of paw edema” value in test [7] (dose 20 mg/kg, 3 h) was 59.74 ± 2.67 %; in test [7] (dose 20 mg/kg, 4 h), 58.02 ± 1.95 %. In test [2], half-maximal inhibition (IC50) was put at 58.7 µM. Also, the SOD activity in test [8] (brain, high-dosage group) turned out to be 95 U/mL; in test [8] (heart, compound 1 (10 mg) group), 140.0 U/mg proteins; in test [8] (heart, high-dosage group), 180.0 U/mg proteins; in test [8] (liver, high-dosage group), 890.0 U/mg protein. Further, the “SOD activity compared to the model group” value in test [8] (p < 0.05, D-galactose aging mice) was “higher”.
As for `CC1=C(O)C(=O)C(O)CO1` (stereo not shown) [Compound 2, 3,5-dihydroxy-6-methyl-2,3-dihydro-4H-pyran-4-one], in test [1] (62.50 μg/mL), the inhibition at 62.5 µg/mL stood at 40.8 ± 1.06%. Besides, in test [1] (125 µg/mL), the inhibition at 125 µg/mL came to 46.4 ± 0.62%. Further, in test [1], the inhibition at 250 µg/mL is 54.6 ± 0.58% and the inhibition at 1000 µg/mL was determined as 71.37 ± 0.56%. Further, in test [1] (500 µg/mL), the inhibition at 500 µg/mL was determined as 65.29 ± 0.41%. Besides, in test [2], the half-inhibitory concentration (IC50) was 73.9 µM, the inhibition at 62.5 µg/mL came to 61.35 ± 0.18%, the inhibition at 125 µg/mL is 66.2 ± 0.15% and the inhibition at 250 µg/mL was 73.42 ± 0.11%. Also, in test [2], the inhibition at 500 µg/mL is 78.62 ± 0.17% and the inhibition at 1000 µg/mL was determined as 83.53 ± 0.2%.
For the compound `C=Cc1cc(OC)c(O)c(OC)c1` [Compound 5, 2,6-dimethoxy-4-vinylphenol], the inhibition at 62.5 µg/mL in test [1] (62.50 μg/mL) was determined as 29.15 ± 0.22%. In test [1] (125 µg/mL), the inhibition at 125 µg/mL came to 41.4 ± 0.71%. In test [1], this compound registered an inhibition at 250 µg/mL of 47.39 ± 0.35% and an inhibition at 1000 µg/mL of 67.73 ± 0.03%. For the same compound, in test [1] (500 µg/mL), the inhibition at 500 µg/mL was 57.42 ± 0.12%. For the same compound, in test [2], the midpoint of inhibition, the IC50, lay at 171 µM; the inhibition at 62.5 µg/mL stood at 49.9 ± 0.65%; the inhibition at 125 µg/mL was 57.2 ± 0.57%; the inhibition at 250 µg/mL worked out at 65.5 ± 1.04%. In test [2], the inhibition at 500 µg/mL is 71.3 ± 1.11% and the inhibition at 1000 µg/mL is 84.83 ± 0.62%. In addition, the “% 5-LOX inhibitions” value in test [2] (listed as Comp 5) amounted to 76.7 ± 0.66 %.
